These results are taken from patent US20080199855A1, “Identification And Characterization Of A Subset of Glioblastomas Sensitive To Treatment With Imatinib” (priority 2004, published 2008).

The test system of one assay is GBM culture 13. In words: Growth inhibition induced by compound I, GBM culture 13. The note with it: Homo sapiens, 96 h, read-out: growth inhibition (% reduction of increase in cell number).
For a further assay, the system named is GBM culture 38. In words: cells. The note with it: Homo sapiens, 96 h, read-out: growth inhibition (% reduction of increase in cell number).
The next assay deals with ERK. In words: Compound I-induced change in ERK phosphorylation in GBM cultures (immunoblotting). The class given is cell-based, human. The note with it: 10 GBM cultures; 1 μM compound I for 1 h; 10% FCS.
For a further assay, the system named is GBM culture 6. In words: cells. The note with it: Homo sapiens, 96 h, read-out: growth inhibition (% reduction of increase in cell number).
The test system of another assay is GBM culture 35. Kind of assay: cells. The note with it: Homo sapiens, 96 h, read-out: growth inhibition (% reduction of increase in cell number).
The next assay concerns GBM culture 21. Kind of assay: cells. The note with it: Homo sapiens, 96 h, read-out: growth inhibition (% reduction of increase in cell number).
In another assay the test system is GBM culture 11. Kind of assay: cells. The note with it: Homo sapiens, 96 h, read-out: growth inhibition (% reduction of increase in cell number).
The test system of the next assay is GBM culture 31. Kind of assay: cells. The note with it: Homo sapiens, 96 h, read-out: growth inhibition (% reduction of increase in cell number).
The next assay relates to GBM culture 9. Kind of assay: cells. The note with it: Homo sapiens, 96 h, read-out: growth inhibition (% reduction of increase in cell number).
The next assay deals with GBM culture 34. In words: cells. The note with it: Homo sapiens, 96 h, read-out: growth inhibition (% reduction of increase in cell number).
The next assay concerns GBM culture 18. In words: cells. The note with it: Homo sapiens, 96 h, read-out: growth inhibition (% reduction of increase in cell number).
Another assay deals with Akt. Kind of assay: Compound I-induced change in Akt phosphorylation in GBM cultures (immunoblotting). The note with it: 10 GBM cultures; 1 μM compound I for 1 h; 10% FCS. The class given is cell-based, human. (In western blotting, separated proteins are transferred to a membrane and probed.)
In another assay the test system is GBM culture 45. In words: cells. The note with it: Homo sapiens, 96 h, read-out: growth inhibition (% reduction of increase in cell number).
Another assay deals with GBM culture 8. Kind of assay: cells. The note with it: Homo sapiens, 96 h, read-out: growth inhibition (% reduction of increase in cell number).
For a further assay, the system named is GBM culture 5. Kind of assay: cells. The note with it: Homo sapiens, 96 h, read-out: growth inhibition (% reduction of increase in cell number).
A further assay deals with GBM culture 30. Kind of assay: cells. The note with it: Homo sapiens, 96 h, read-out: growth inhibition (% reduction of increase in cell number).
The next assay deals with GBM culture 7. In words: cells. The note with it: Homo sapiens, 96 h, read-out: growth inhibition (% reduction of increase in cell number).
Another assay has as its system GBM culture 27. Kind of assay: cells. The note with it: Homo sapiens, 96 h, read-out: growth inhibition (% reduction of increase in cell number).

As usually defined, the inhibition is the change of the read-out against control, counted positive when it falls.

Protocol for Akt: (§1) Glioblastoma cell cultures were confluently plated in 12-well plate wells (Falcon). […] Samples, with normalized protein content, were subjected to SDS-PAGE using 12% gels. Control lysates from un-stimulated and PDGF-BB-stimulated PAE/Rβ cells were loaded on each gel. Samples were electrophoretically transferred to Hydrobond-C-Extra filters (Amersham Life Science). For detection of phosphorylated forms of ERK and Akt, filters were blocked for 1 h in Tris buffered saline pH 7.6 (TBS), 0.137 M NaCl and 0.0035 M Tris-HCl, containing 5% BSA, and incubated over night with 1 μg/ml anti phospho-p44/42 MAPK Thr202/Tyr204 (Cell Signaling Technology) or 1 μg/ml anti phospho-Akt Ser473 (Cell Signaling Technology) in TBS with 0.001% Tween-20 (TTBS). After three 10 min washes in TTBS, the filters were incubated for 1 h with horseradish peroxidase coupled sheep anti-rabbit antibody (Amersham Life Science) diluted 1:25000, and washed three times 10 min in TTBS. The antigens were detected using the Lumi-Light plus western blotting substrate (Roche) according to the manufacturer's instruction with an Intelligent Darkbox II digital scanner (FUJIFILM). […] Values were quantified by using the AIDA software version 3.10.039 (FUJIFILM). The relative expression and phosphorylation of ERK and Akt in the different GBM cultures, was determined by using the reference samples from the PAE/Rβ cells.
Protocol for ERK: as §1

As to `Cc1ccc(NC(=O)c2ccc(CN3CCN(C)CC3)cc2)cc1Nc1nccc(-c2cccnc2)n1` [compound I], the inhibition at 1 µM is 20 to 40% in the assay on GBM culture 13; under 15% in the assay with GBM culture 38; over 40% in the assay with GBM culture 6; under 15% in the assay with GBM culture 35; under 15% in the assay with GBM culture 21; over 40% in the assay on GBM culture 11. Also, the inhibition at 1 µM was over 40% in the assay on GBM culture 31; over 40% in the assay with GBM culture 9; under 15% in the assay on GBM culture 34; under 15% with GBM culture 18; over 40% with GBM culture 45; 20 to 40% in the assay with GBM culture 8. The inhibition at 1 µM with GBM culture 5 is under 15%; in the assay with GBM culture 30, under 15%; with GBM culture 7 it was over 40%; with GBM culture 27 it was 20 to 40%. In the assay with ERK, the “compound I-induced change in specific phosphorylation of ERK” value is “only moderate changes”. Also, the “compound I-induced change in specific phosphorylation of Akt” value in the assay with Akt is listed as “only moderate changes”.
